Experimental data: patent US8637511B2, “Aminopyrimidines useful as kinase inhibitors” (Vertex Pharmaceuticals Incorporated, priority 2005, dated 2014)
Values joined by “and” are separate entries in the source; they are usually repeats but may differ in a detail not shown here. Identical values can stand only once. Like-named read-outs stand apart in the source and are kept apart here.

Assays:
Aurora-1 (Aurora B) = Aurora-1 (Aurora B) (Homo sapiens, UniProt Q96GD4); experiment: Aurora-1 (Aurora B) inhibition assay (radiometric); assay type: biochemical; conditions: read-out: Aurora B kinase Ki value
Outline: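 Ki values come from non-linear regression of background-corrected initial-rate data. The enzyme was preincubated 10 min at 25° C with compound, then reacted 3 h with 800 μM (final) [γ-^33P]-ATP in HEPES pH 7.5/MgCl2/BSA/glycerol buffer. The reaction was stopped with phosphoric acid and substrate-bound ^33P counted on phosphocellulose.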

Colo205 cells = experiment: Analysis of cell proliferation and viability; assay type: cell-based; conditions: Homo sapiens, COLO 205, Colo205 cells, read-out: IC50 value
Aurora-2 (Aurora A) = biological target: T1, Aurora-2 (Aurora A) (Homo sapiens, UniProt O14965); experiment: Aurora-2 (Aurora A) inhibition assay, coupled enzyme; assay type: biochemical; conditions: read-out: Aurora A kinase Ki value
T1 sequence (O14965 1-403): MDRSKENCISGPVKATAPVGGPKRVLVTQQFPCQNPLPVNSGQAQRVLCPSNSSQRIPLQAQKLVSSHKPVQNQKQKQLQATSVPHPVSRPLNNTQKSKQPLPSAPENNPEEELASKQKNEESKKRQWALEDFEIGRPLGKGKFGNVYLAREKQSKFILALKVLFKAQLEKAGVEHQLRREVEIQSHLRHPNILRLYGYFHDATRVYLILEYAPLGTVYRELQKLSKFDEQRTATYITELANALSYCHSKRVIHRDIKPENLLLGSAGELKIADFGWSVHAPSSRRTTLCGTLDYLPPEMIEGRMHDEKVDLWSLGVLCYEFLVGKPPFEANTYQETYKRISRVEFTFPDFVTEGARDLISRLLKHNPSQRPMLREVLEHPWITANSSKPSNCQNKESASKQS
Outline: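 These rates came from NADH consumption coupled through pyruvate kinase and lactate dehydrogenase (100 mM Hepes pH 7.5, 10 mM MgCl2, 300 μM NADH). Aurora-2 was present at 40 nM, and the reaction ran at 30 °C after a 10 min preincubation.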

JAK3 = biological target: T2, JAK3 (Homo sapiens, UniProt P52333); experiment: biochemical
T2 sequence (P52333 1-1124): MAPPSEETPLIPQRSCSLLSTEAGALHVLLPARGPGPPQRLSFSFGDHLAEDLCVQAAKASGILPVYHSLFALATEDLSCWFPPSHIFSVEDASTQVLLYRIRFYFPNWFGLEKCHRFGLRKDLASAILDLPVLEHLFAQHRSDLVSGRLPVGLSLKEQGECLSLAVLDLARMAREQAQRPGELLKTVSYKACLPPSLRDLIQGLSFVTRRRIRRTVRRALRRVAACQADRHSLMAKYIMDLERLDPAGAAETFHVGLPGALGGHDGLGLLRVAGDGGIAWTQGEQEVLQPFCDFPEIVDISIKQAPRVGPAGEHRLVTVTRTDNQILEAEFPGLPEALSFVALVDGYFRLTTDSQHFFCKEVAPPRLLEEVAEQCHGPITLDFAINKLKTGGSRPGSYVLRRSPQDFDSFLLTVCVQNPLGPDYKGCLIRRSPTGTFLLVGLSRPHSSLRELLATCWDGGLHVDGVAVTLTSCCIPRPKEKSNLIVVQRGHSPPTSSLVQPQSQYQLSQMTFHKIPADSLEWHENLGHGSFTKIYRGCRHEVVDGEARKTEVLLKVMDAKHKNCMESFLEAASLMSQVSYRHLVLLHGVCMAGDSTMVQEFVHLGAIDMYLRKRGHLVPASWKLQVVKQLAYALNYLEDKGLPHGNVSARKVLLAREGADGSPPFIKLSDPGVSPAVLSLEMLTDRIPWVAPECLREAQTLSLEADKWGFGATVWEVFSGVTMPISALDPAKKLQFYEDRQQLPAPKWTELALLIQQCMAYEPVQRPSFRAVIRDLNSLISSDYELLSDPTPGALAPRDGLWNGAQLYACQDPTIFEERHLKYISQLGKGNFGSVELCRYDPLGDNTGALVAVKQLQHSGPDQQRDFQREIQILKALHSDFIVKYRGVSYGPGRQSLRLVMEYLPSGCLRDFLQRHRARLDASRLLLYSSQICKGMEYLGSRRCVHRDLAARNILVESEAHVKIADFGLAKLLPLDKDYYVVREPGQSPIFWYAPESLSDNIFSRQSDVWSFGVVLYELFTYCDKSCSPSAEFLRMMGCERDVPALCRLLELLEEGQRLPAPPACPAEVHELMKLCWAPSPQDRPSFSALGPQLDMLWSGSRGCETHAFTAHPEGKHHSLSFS

Aurora-1 (Aurora B), sequence (Q96GD4 whole entry): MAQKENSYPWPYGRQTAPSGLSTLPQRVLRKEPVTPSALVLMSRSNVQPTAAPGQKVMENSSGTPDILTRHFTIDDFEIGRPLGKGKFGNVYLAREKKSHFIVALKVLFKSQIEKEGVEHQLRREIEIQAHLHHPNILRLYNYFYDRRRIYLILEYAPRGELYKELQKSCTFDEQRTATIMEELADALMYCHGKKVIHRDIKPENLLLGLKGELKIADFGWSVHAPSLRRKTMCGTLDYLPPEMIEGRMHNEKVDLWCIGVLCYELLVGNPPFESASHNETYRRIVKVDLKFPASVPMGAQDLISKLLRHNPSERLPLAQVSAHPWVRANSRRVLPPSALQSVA

SMILES	Ki (Aurora-1 (Aurora B))	IC50 (Colo205 cells; incubated for 72 hours) [nM]	IC50 (Colo205 cells; incubated for 96 hours) [nM]	Ki (Aurora-2 (Aurora A)) [nM]	Ki (JAK3) [nM]	Ki (JAK3; read-out: JAK3 Ki value) [nM]
Cc1cc(Nc2cc(N3CCC3)nc(Sc3ccc(NC(=O)c4cnccc4C(F)(F)F)cc3)n2)[nH]n1 [Compound 59]	≤ 10 nM	> 200	50 to 1000			
Cc1cc(Nc2nc(Sc3ccc(NC(=O)CC(F)(F)F)cc3)nc(N3CC(F)(C4CC4)C3)c2F)[nH]n1 [Compound 178]	10 to 50 nM	30 to 200		≤ 1	500 to 2000	
Cc1cc(Nc2cc(N3CC(F)(C4CC4)C3)nc(Sc3cnc4ccccc4c3)n2)[nH]n1 [Compound 206]	10 to 50 nM	> 200		≤ 1	≤ 10	
Cc1cc(Nc2cc(N3CC(C)(C#N)C3)nc(Sc3ccc(NC(=O)CC(F)(F)F)cc3)n2)[nH]n1 [Compound 169]	≤ 10 nM	30 to 200		≤ 1		10 to 500
Cc1cc(Nc2cc(N3CC(N4CC[C@H](F)C4)C3)nc(Sc3ccc(NC(=O)CC(F)(F)F)cc3)n2)[nH]n1 [Compound 185]	≤ 10 nM	≤ 30		≤ 1		≤ 10
Cc1cc(Nc2cc(N3CC(OC(=O)CN(C)C)(C4CC4)C3)nc(Sc3ccc(NC(=O)C4CC4)cc3)n2)n[nH]1 [Compound 119]	≤ 10 nM	30 to 200		≤ 1	10 to 500	
Cc1cc(Nc2cc(N3CC(N4CCCC4)C3)nc(Sc3ccc(NC(=O)CC(F)(F)F)cc3)n2)[nH]n1 [Compound 204]	≤ 10 nM	≤ 30		≤ 1		10 to 500
Cc1cnc(Nc2cc(N3CC(F)(C4CC4)C3)nc(Oc3ccc(NC(=O)CC(F)(F)F)cc3)n2)s1 [Compound 181]	10 to 50 nM	30 to 200		≤ 1		≤ 10
Cc1cc(Nc2cc(N3CC(O)(C4CC4)C3)nc(Sc3cc(F)c4nc(C)ccc4c3)n2)[nH]n1 [Compound 172]	≤ 10 nM	≤ 30		≤ 1	≤ 10	
CCC(=O)Nc1ccc(Sc2nc(Nc3cc(C)n[nH]3)cc(N3CC4(C3)OCC4(C)C)n2)cc1 [Compound 92]	10 to 50 nM		≤ 50	≤ 1	≤ 10	
CCOC1CN(c2cc(Nc3cc(C)[nH]n3)nc(Sc3ccc(NC(=O)c4ccccc4Cl)cc3)n2)C1 [Compound 37]	≤ 10 nM		50 to 1000	≤ 1		≤ 10
Cc1cc(Nc2cc(N3CCC3)nc(Sc3ccc(NC(=O)c4ccc(-c5ccccc5)cc4Cl)cc3)n2)[nH]n1 [Compound 83]	≤ 10 nM	30 to 200		≤ 1	10 to 500	
Cc1cc(Nc2cc(N3CC(F)(C4CC4)C3)nc(Sc3ccc(C(=O)NCC(F)(F)F)cc3)n2)[nH]n1 [Compound 205]	10 to 50 nM and < 25 nM	≤ 30		≤ 1		10 to 500
Cc1cc(Nc2cc(N3CC(F)(C4CC4)C3)nc(Oc3ccc(NC(=O)CC(F)(F)F)cc3)n2)[nH]n1 [Compound 144]	10 to 50 nM and < 25 nM	≤ 30		≤ 1	10 to 500	
Cc1cc(Nc2cc(N3CC(O)(C4CC4)C3)nc(Sc3ccc4nc(C(F)(F)F)n(C)c4c3)n2)[nH]n1 [Compound 155]	≤ 10 nM		≤ 50	≤ 1	10 to 500	
CCC(=O)Nc1ccc(Sc2nc(Nc3cc(C)n[nH]3)cc(N3CC(OC(C)(C)C)C3)n2)cc1 [Compound 67]	50 to 2000 nM		50 to 1000	≤ 1		10 to 500
Cc1cc(Nc2cc(N3CC(F)(C4CC4)C3)nc(Sc3ccc(NS(C)(=O)=O)cc3)n2)[nH]n1 [Compound 151]	50 to 2000 nM	30 to 200		≤ 1	≤ 10	
Cc1cc(Nc2cc(N3CC(OC(C)C)C3)nc(Sc3ccc(NC(=O)c4ccccc4Cl)cc3)n2)n[nH]1 [Compound 38]	≤ 10 nM		≤ 50	≤ 1	10 to 500	
Cc1cc(Nc2cc(N3CC(C)(O)C3)nc(Sc3ccc(NC(=O)c4ccccc4Cl)cc3)n2)[nH]n1 [Compound 50]	≤ 10 nM	≤ 30	≤ 50	≤ 1		≤ 10
COC1(C)CN(c2cc(Nc3cc(C)n[nH]3)nc(Sc3ccc(NC(=O)c4ccccc4Cl)cc3)n2)C1 [Compound 51]	≤ 10 nM	≤ 30	≤ 50	≤ 1	10 to 500	
Cc1cc(Nc2cc(N3CC(O)(C4CC4)C3)nc(Sc3ccc4nc(C(F)(F)F)ccc4c3)n2)[nH]n1 [Compound 186]	≤ 10 nM	30 to 200		≤ 1		10 to 500
Cc1cc(Nc2cc(N3CC(N4CCOCC4)C3)nc(Sc3ccc4nc(CC(F)(F)F)n(C)c4c3)n2)[nH]n1 [Compound 177]	≤ 10 nM	30 to 200		≤ 1	10 to 500	
Cc1cc(Nc2cc(N3CC(N4CCOCC4)C3)nc(Sc3ccc4c(c3)CN(CC(F)(F)F)C4=O)n2)[nH]n1 [Compound 173]	10 to 50 nM and < 25 nM	30 to 200		≤ 1	≤ 10	
Cc1cc(Nc2cc(N3CC(C)(C(C)(C)F)C3)nc(Sc3ccc(NC(=O)CC(F)(F)F)cc3)n2)[nH]n1 [Compound 183]	≤ 10 nM	≤ 30		≤ 1		≤ 10
CC(C)(C)c1cc(Nc2cc(N3CCC3)nc(Sc3ccc(NC(=O)c4ccccc4Cl)cc3)n2)n[nH]1 [Compound 69]	50 to 2000 nM					500 to 2000
COCc1cc(Nc2cc(N3CCC3)nc(Sc3ccc(NC(=O)c4ccccc4Cl)cc3)n2)n[nH]1 [Compound 82]	50 to 2000 nM					500 to 2000
